What was measured:
[1] = target: T1, human A1 AR (Homo sapiens, UniProt P30542); assay: Radioligand binding assay at human A1 AR vs. [^3H]CCPA; conditions: human (h); CHO cell membranes; n = 3
T1 construct: expressed in transfected cells; host or cells: CHO cells
T1 sequence (P30542 1-326): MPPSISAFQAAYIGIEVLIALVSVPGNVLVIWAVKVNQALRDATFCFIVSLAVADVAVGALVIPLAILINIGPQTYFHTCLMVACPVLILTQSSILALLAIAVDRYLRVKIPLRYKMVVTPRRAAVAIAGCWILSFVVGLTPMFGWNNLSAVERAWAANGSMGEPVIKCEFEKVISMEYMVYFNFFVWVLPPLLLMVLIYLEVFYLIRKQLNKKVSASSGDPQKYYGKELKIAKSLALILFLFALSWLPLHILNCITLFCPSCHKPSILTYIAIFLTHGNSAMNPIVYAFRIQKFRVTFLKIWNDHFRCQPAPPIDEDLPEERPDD
Description: (§1) Membrane preparations and radioligand binding assays at rat A1 (rat brain cortex) and rat A2A ARs (rat brain striatum) were performed as previously described (Ozola et al., [2003]; Alnouri et al., [2015]). For assays at human A1, A2A, A2B, and A3 ARs, CHO cell membranes expressing one of the human AR subtypes were used as previously reported (Klotz et al., [1998]; Alnouri et al., [2015]; De Filippo et al., [2016]).
(§2) The synthesized tetrahydropyrazino[2,1-f ]purinediones 13–20 were evaluated in radioligand binding assays for their affinity to A1 ARs of rat brain cortical membrane and to A2A ARs of rat brain striatal membrane preparations. Selected compounds were further investigated for their affinity to human A1 and A2A ARs recombinantly expressed in Chinese hamster ovary (CHO) cells. All compounds were additionally investigated for their affinity to human A2B and A3 ARs recombinantly expressed in CHO cells to determine their AR subtype selectivity. […] It is well known that all xanthine derivatives lacking a ribose moiety, including tricyclic compounds, can only block ARs, but never act as AR agonists; therefore, additional functional studies were not required. […] Potent MAO-B inhibitors were additionally investigated for inhibition of human MAO-A to assess their selectivity. Results are presented in Tables 1–6, and data of standard ligands are included for comparison.

[2] = target: T2, rat A1 AR (Rattus norvegicus, UniProt P25099); assay: Radioligand binding assay at rat A1 AR (rat brain cortex) vs. [^3H]CCPA; conditions: rat (r); rat brain cortex; n = 3
T2 construct: A1 ARs of rat brain cortical membrane; from tissue; host or cells: rat brain cortex membranes
T2 sequence (P25099 1-326): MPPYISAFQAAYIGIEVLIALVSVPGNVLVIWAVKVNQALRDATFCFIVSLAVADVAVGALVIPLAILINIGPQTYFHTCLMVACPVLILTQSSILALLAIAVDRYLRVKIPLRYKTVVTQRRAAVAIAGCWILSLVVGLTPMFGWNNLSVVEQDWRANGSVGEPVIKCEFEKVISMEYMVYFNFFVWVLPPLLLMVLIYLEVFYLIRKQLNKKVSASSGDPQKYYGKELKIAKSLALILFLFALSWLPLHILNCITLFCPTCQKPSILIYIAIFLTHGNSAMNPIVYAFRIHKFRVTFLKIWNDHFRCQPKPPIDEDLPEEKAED
Outline: (§3)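 Membranes of CHO cells recombinantly expressing single human AR subtypes served for human assays, A2B competed against [^3H]PSB-603. Native rat tissue was used otherwise: cortical membranes with [^3H]CCPA for A1, striatal membranes with [^3H]MSX-2 for A2A.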

[3] = target: T3, human A2A AR (Homo sapiens, UniProt P29274); assay: Radioligand binding assay at human A2A AR vs. [^3H]MSX-2; conditions: CHO cell membranes, n = 3, read-out: Ki ± SEM, A2A vs. [^3H]MSX-2
T3 construct: expressed in transfected cells; host or cells: CHO cells
T3 sequence (P29274 whole entry): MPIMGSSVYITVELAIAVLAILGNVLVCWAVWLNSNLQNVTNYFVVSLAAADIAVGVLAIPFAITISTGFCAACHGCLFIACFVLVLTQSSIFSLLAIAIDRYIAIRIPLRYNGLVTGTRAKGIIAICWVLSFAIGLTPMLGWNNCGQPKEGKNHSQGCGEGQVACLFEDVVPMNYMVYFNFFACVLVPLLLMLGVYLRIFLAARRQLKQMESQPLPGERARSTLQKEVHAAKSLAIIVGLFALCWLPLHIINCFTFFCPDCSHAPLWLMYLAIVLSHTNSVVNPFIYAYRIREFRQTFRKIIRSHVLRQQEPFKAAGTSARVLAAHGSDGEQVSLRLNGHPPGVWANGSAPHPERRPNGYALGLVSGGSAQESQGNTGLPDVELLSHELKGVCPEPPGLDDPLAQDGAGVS
Description: as §1, §2

[4] = target: T4, rat A2A AR (Rattus norvegicus, UniProt P30543); assay: Radioligand binding assay at rat A2A AR (rat brain striatum) vs. [^3H]MSX-2; conditions: rat (r); for Ki: rat brain striatum, n = 3, read-out: Ki ± SEM, A2A vs. [^3H]MSX-2
T4 construct: A2A ARs of rat brain striatal membrane preparations; from tissue; host or cells: rat brain striatum membranes
T4 sequence (P30543 whole entry): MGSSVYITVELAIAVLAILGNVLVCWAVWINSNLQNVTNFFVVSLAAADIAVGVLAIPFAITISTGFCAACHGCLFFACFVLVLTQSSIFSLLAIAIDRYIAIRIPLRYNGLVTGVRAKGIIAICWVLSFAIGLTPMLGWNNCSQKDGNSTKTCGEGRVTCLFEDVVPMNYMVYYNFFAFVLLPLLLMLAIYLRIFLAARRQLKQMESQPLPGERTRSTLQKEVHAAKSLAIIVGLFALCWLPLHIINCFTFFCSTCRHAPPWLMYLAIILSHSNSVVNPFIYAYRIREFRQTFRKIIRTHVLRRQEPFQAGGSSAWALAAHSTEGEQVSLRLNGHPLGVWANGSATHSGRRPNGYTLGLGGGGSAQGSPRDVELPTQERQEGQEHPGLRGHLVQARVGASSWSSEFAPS
Outline: as §3

[5] = target: T5, human A2B AR (Homo sapiens, UniProt P29275); assay: Radioligand binding assay at human A2B AR vs. [^3H]PSB-603; conditions: for Ki: CHO cell membranes, n = 2 (n = 3 where marked a), read-out: Ki ± SEM, A2B vs. [^3H]PSB-603; for inhibition at 1 µM: at 1,000 nM, read-out: % inhibition of radioligand binding at indicated concentration, A2B vs. [^3H]PSB-603
T5 construct: expressed in transfected cells; host or cells: CHO cells
T5 sequence (P29275 1-332): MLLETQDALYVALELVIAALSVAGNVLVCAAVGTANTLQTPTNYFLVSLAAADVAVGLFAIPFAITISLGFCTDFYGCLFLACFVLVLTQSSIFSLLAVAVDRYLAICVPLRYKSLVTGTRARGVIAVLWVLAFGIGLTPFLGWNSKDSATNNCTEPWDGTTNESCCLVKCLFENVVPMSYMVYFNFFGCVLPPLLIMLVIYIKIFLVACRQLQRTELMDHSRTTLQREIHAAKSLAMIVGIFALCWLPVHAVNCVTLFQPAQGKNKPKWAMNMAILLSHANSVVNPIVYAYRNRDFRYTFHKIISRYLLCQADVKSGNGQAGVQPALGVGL
Outline: as §3

[6] = target: T6, human A3 AR (Homo sapiens, UniProt P0DMS8); assay: Radioligand binding assay at human A3 AR vs. [^3H]PSB-11; conditions: for Ki: CHO cell membranes, n = 2 (n = 3 where marked a), read-out: Ki ± SEM, A3 vs. [^3H]PSB-11; for inhibition at 10 µM: at 10,000 nM, read-out: % inhibition of radioligand binding at indicated concentration, A3 vs. [^3H]PSB-11
T6 construct: expressed in transfected cells; host or cells: CHO cells
T6 sequence (P0DMS8 1-318): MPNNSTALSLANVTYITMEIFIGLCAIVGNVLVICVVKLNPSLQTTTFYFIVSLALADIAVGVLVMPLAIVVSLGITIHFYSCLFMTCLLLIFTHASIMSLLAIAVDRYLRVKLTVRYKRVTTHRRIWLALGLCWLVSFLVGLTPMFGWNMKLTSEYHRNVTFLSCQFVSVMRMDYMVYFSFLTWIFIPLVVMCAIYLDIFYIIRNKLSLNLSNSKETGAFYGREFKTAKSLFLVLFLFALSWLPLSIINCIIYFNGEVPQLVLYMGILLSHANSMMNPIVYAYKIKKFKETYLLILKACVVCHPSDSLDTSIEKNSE
Outline: as §3

[7] = target: T7, recombinant human MAO-B (Homo sapiens, UniProt P27338); assay: Monoamine oxidase assay (Amplex Red), MAO-B; format: biochemical; conditions: for inhibition at 10 µM: at 10,000 nM (10 μM), read-out: % inhibition at indicated concentration, Human MAO-B; for IC50: n = 3, read-out: IC50 ± SEM, Human MAO-B
T7 construct: purchased Sigma-Aldrich M7441; host or cells: baculovirus-infected insect cells
T7 sequence (P27338 1-520): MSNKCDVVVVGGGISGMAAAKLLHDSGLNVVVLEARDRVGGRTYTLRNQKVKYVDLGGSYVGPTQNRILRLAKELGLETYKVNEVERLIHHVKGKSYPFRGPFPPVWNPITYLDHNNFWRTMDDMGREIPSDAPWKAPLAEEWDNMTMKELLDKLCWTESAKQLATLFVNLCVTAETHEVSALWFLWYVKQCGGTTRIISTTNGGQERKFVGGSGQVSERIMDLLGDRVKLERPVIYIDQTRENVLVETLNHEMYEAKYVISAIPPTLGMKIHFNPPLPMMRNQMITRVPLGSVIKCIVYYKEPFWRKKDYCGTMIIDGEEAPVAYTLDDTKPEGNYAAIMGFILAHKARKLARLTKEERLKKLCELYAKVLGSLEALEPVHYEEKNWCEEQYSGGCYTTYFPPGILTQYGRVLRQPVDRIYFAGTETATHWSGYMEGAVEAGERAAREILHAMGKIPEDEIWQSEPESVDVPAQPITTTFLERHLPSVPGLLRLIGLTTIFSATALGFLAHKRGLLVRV
Outline: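 Inhibition was measured with an Amplex Red monoamine oxidase assay, using human MAO-A and MAO-B produced recombinantly in baculovirus-infected insect cells. For rat MAO-B, liver mitochondria-enriched fractions from male Sprague Dawley rats served as enzyme source.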

Row | Structure (SMILES) | Ki [1] [nM] | Ki [2] [nM] | Ki [3] [nM] | Ki [4] [nM] | Ki [5] [nM] | inhibition at 1 µM [5] [%] | Ki [6] [nM] | inhibition at 10 µM [7] [%] | IC50 [7] [nM] | % inhibition of radioligand binding at indicated concentration, A2A vs. [^3H]MSX-2 ([4]; at 1,000 nM) [%] | inhibition at 10 µM [6] [%]
1 | CCn1c(=O)c2c(nc3n2CCN(Cc2cccc(Br)c2)C3)n(CC)c1=O [Compound 15d, 8-(3-bromobenzyl)-1,3-diethyl-6,7,8,9-tetrahydropyrazino[2,1-f]purine-2,4(1H,3H)-dione] | 13.6 ± 2.1 | 21.5 ± 8.3 | 1050 | 1040 | 496 ± 135 |  | 7220 | 49 | ≥ 10000 |  | 
2 | CCn1c(=O)c2c(nc3n2CCN(Cc2cccc(Cl)c2)C3)n(CC)c1=O [Compound 15c, 8-(3-chlorobenzyl)-1,3-diethyl-6,7,8,9-tetrahydropyrazino[2,1-f]purine-2,4(1H,3H)-dione] | 128 ± 17 | 85.9 ± 28.6 | 2380 | > 1000 | > 1000 | 12 | 5410 | 47 | ≥ 10000 | 22 | 
3 | CCn1c(=O)c2c(nc3n2CCN(Cc2cccc(C(F)(F)F)c2F)C3)n(CC)c1=O [Compound 15h, 1,3-diethyl-8-(2-fluoro-3-(trifluoromethyl)benzyl)-6,7,8,9-tetrahydropyrazino[2,1-f]purine-2,4(1H,3H)-dione] | 189 ± 29 | 172 ± 28 | 663 ± 54 | 895 ± 210 | > 1000 | 30 | > 10000 | 32 | > 10000 |  | 29

The next lines start with the values.

Row | Ki [1] [nM] | Ki [2] [nM] | Ki [3] [nM] | Ki [4] [nM] | Ki [5] [nM] | inhibition at 1 µM [5] [%] | Ki [6] [nM] | inhibition at 10 µM [7] [%] | IC50 [7] [nM] | % inhibition of radioligand binding at indicated concentration, A2A vs. [^3H]MSX-2 ([4]; at 1,000 nM) [%] | inhibition at 10 µM [6] [%] | Structure (SMILES)
4 | 1530 | 410 ± 60 | 378 ± 49 | 128 ± 20 | > 1000 | 15 | 2390 | 35 | > 10000 |  |  | C#CCn1c(=O)c2c(nc3n2CCN(c2ccc(F)cc2)C3)n(CC)c1=O [Compound 20b, 1-ethyl-8-(4-fluorophenyl)-3-propargyl-6,7,8,9-tetrahydropyrazino[2,1-f]purine-2,4(1H,3H)-dione]
5 | 1260 | 701 ± 204 | 3230 | 883 ± 265 | > 1000 | 24 | 5830 | 26 | > 10000 |  |  | C#CCn1c(=O)c2c(nc3n2CCN(CCc2ccccc2OC)C3)n(CC)c1=O [Compound 20i, 1-ethyl-8-(2-methoxyphenethyl)-3-propargyl-6,7,8,9-tetrahydropyrazino[2,1-f]purine-2,4(1H,3H)-dione]
6 | 1020 | 669 ± 35 | 25500 | 798 ± 134 | > 1000 | 11 | > 10000 | 30 | > 10000 |  | 13 | C#CCn1c(=O)c2c(nc3n2CCN(CCc2cccc(OC)c2)C3)n(CC)c1=O [Compound 20j, 1-ethyl-8-(3-methoxyphenethyl)-3-propargyl-6,7,8,9-tetrahydropyrazino[2,1-f]purine-2,4(1H,3H)-dione]
7 | 124 ± 90 | 118 ± 22 | 542 ± 169 | 769 ± 77 | > 1000 | 22 | > 10000 | 41 | > 10000 |  | 40 | C#CCn1c(=O)c2c(nc3n2CCN(Cc2cccc(OC)c2)C3)n(CC)c1=O [Compound 20g, 1-ethyl-8-(3-methoxybenzyl)-3-propargyl-6,7,8,9-tetrahydropyrazino[2,1-f]purine-2,4(1H,3H)-dione]
8 | 210 ± 90 | 32.7 ± 5.8 | 311 ± 106 | 1200 | > 1000 | 18 | 7640 | 27 | > 10000 |  |  | C#CCn1c(=O)c2c(nc3n2CCN(Cc2ccccc2OC)C3)n(CC)c1=O [Compound 20f, 1-ethyl-8-(2-methoxybenzyl)-3-propargyl-6,7,8,9-tetrahydropyrazino[2,1-f]purine-2,4(1H,3H)-dione]
